How the values were obtained:
Cytochrome P450 4F2 = target: T1, Cytochrome P450 4F2 (Homo sapiens, UniProt P78329); experiment: Metabolic clearance (ul.min.nmol-1 CYP) of aliskiren hemifumarate for CYP4F2 was determined in human liver microsome incubated with [14C]SPP100 hemifumarate; assay type: ADME; conditions: microsomes
T1 sequence (P78329 whole entry): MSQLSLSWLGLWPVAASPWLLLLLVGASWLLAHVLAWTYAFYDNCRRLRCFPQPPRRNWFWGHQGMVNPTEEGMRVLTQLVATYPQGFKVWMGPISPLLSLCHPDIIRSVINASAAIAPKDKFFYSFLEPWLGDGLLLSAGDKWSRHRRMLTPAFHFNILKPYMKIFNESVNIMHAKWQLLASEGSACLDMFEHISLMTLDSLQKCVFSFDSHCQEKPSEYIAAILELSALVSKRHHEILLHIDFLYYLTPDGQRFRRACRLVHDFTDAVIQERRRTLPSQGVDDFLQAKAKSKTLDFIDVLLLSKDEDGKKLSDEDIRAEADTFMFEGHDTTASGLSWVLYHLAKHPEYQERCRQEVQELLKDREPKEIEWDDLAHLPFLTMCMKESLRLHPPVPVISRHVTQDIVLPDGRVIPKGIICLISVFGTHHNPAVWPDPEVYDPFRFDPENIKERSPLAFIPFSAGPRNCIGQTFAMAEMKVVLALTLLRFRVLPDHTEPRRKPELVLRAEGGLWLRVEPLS

[1] = Excretion of radioactivity (48-72h) in urine following single oral dose of 100 mg.Kg-1 [14C] aliskiren hemifumarate in rat; assay type: ADME, organism-based, Albino HAN:WIST; conditions: in vivo
[2] = % of radioactivity (48h) recovered in urine of receiver rat following duodenal infusion of radioactivity through bile from donor rat treated with single intravenous administration of 10 mg.Kg-1 [14C] aliskiren hemifumarate; assay type: ADME, organism-based, HAN:WIST(SPF); conditions: in vivo
[3] = Total excretion (0-96h) of radioactivity in urine, faeces and cage wash following single intravenous dose of 10 mg.Kg-1 [14C] aliskiren hemifumarate in mouse; assay type: ADME, organism-based, Urine/Feces; conditions: rat, in vivo
[4] = Concentration of radioactivity in the brown fat following repeated oral administration of [14C] aliskiren hemifumarate at 100 mg.Kg-1 level studied at 24h after 3rd dose in rat; assay type: ADME, organism-based, Albino HAN:WIST, Brown adipose tissue; conditions: in vivo
[5] = Excretion of radioactivity (0-24h) in urine following single oral dose of 500 mg.Kg-1 [14C] aliskiren hemifumarate in mouse; assay type: ADME, organism-based, TgRasH2; conditions: in vivo
[6] = Excretion of radioactivity (0-24h) in faeces following single oral dose of 100 mg.Kg-1 [14C] aliskiren hemifumarate in rat; assay type: ADME, organism-based, Albino HAN:WIST, Feces; conditions: in vivo
[7] = Concentration of radioactivity in the colon wall following repeated oral administration of [14C] aliskiren hemifumarate at 100 mg.Kg-1 level studied at 24h after 3rd dose in rat; assay type: ADME, organism-based, Albino HAN:WIST; conditions: in vivo
[8] = Cmax (0-168h) of unlabeled aliskiren hemifumarate following single intravenous administration of aliskiren hemifumarate at 1 mg.Kg-1 level in marmoset; assay type: ADME, organism-based, Callithrix jacchus; conditions: plasma
[9] = Effect of 2 week oral dosing of aliskiren hemifumarate at 100 mg.Kg-1 level on plasma creatinine level in male Callithrix jacchus; assay type: toxicity, organism-based; conditions: marmoset, 336 h
[10] = Tmax (0-96h) of unlabeled aliskiren hemifumarate following intravenous administration of aliskiren hemifumarate at 10 mg.Kg-1 level in rat; assay type: ADME, organism-based; conditions: Albino HAN:WIST, plasma
[11] = t1/2 of aliskiren hemifumarate following 2 week oral dosing of aliskiren hemifumarate at 10 mg.Kg-1 level studied on […] in male Callithrix jacchus; assay type: ADME, organism-based; conditions: marmoset, plasma
[12] = Tmax of aliskiren hemifumarate following 2 week oral dosing of aliskiren hemifumarate at 50 mg.Kg-1 level studied on day 1 in female Callithrix jacchus; assay type: ADME, organism-based; conditions: marmoset, plasma
[13] = Tmax of aliskiren hemifumarate following 4 week oral dietary dosing of aliskiren hemifumarate at 500 mg.Kg-1 level in female mouse; assay type: ADME, organism-based; conditions: CB6F1-TGrasH2, mouse, in vivo
[14] = AUC (0-24h) of aliskiren hemifumarate following 4 week oral dietary dosing of aliskiren hemifumarate at 500 mg.Kg-1 level in male mouse; assay type: ADME, organism-based; conditions: CB6F1-TGrasH2, mouse, plasma
[15] = Effect of 2 week oral dosing of aliskiren hemifumarate at 100 mg.Kg-1 level on blood urea nitrogen level in male Callithrix jacchus; assay type: toxicity, organism-based, Plasma; conditions: marmoset, 336 h
[16] = Cmax of aliskiren hemifumarate following 2 week oral dosing of aliskiren hemifumarate at 50 mg.Kg-1 level studied on day 14 in female Callithrix jacchus; assay type: ADME, organism-based; conditions: marmoset, plasma
[17] = Cmax/dose of aliskiren hemifumarate following 4 week oral dietary dosing of aliskiren hemifumarate at 2000 mg.Kg-1 level in female mouse; assay type: ADME, organism-based, CB6F1-TGrasH2; conditions: in vivo, 672 h
[18] = AUC(0-24)/dose of aliskiren hemifumarate following repeated oral administration of [14C] aliskiren hemifumarate at 100 mg.Kg-1 level studied in rat; assay type: ADME, organism-based, Albino HAN:WIST, Plasma; conditions: in vivo
[19] = Cmaxspec of aliskiren hemifumarate following 2 week oral dosing of aliskiren hemifumarate at 50 mg.Kg-1 level studied on day 14 in male Callithrix jacchus; assay type: ADME, organism-based, Plasma; conditions: marmoset, in vivo, 336 h
[20] = AUC (0-96h) of unlabeled aliskiren hemifumarate following intravenous administration of aliskiren hemifumarate at 10 mg.Kg-1 level in rat; assay type: ADME, organism-based; conditions: Albino HAN:WIST, plasma
CYP2C19 [21] = target: T2, CYP2C19 (Homo sapiens, UniProt P33261); experiment: Inhibitory activity of 200 uM SPP100 on 1156 Pmoles of cDNA-derived CYP2C19 enzyme in microsome prepared from human lymphoblastoid cell line; assay type: ADME, microsomes; set-up: conc 200 uM, interact cpd conc 50 uM; conditions: probe (S)-mephenytoin (50 uM)
CYP2A6 = target: T3, CYP2A6 (Homo sapiens, UniProt P11509); experiment: Inhibitory activity of 200 uM SPP100 on 34 Pmoles of cDNA-derived CYP2A6 enzyme in microsome prepared from human lymphoblastoid cell line; assay type: ADME, microsomes; set-up: conc 200 uM, interact cpd conc 3 uM; conditions: probe coumarine
T3 sequence (P11509 whole entry): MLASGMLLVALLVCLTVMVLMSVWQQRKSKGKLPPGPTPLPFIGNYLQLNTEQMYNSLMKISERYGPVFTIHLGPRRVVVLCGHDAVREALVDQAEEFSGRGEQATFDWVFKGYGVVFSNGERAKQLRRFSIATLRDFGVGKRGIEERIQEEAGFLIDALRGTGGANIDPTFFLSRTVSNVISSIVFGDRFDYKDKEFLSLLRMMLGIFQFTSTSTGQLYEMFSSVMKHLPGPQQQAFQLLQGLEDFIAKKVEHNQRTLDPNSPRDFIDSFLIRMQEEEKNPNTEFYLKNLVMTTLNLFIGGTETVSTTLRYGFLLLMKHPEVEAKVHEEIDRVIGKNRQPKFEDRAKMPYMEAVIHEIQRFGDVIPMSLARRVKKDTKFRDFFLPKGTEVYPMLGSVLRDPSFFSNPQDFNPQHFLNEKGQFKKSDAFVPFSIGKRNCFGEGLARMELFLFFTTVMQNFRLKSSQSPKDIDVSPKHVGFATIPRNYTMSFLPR

CYP2C19 [22] = target: T2, CYP2C19; experiment: Inhibitory activity of 200 uM SPP100 on 1375 Pmoles of cDNA-derived CYP2C19 enzyme in microsome prepared from human lymphoblastoid cell line; assay type: ADME, microsomes; set-up: conc 200 uM, interact cpd conc 50 uM; conditions: probe (S)-mephenytoin (50 uM)
CYP2C9 = CYP2C9 (Homo sapiens, UniProt P11712); experiment: Inhibition of CYP2C9 in human liver microsomes from 10 healthy donors at 200 uM aliskiren (SPP100); assay type: ADME, Microsome; set-up: conc 200 uM; conditions: probe S-warfarin (7-hydroxylation)
CYP2D6 = CYP2D6 (Homo sapiens, UniProt P10635); experiment: Inhibition of CYP2D6 in human liver microsomes from 10 healthy donors at 200 uM aliskiren (SPP100); assay type: ADME, Microsome; set-up: conc 200 uM; conditions: probe bufuralol (1'-hydroxylation)
Chain of CYP2D6 (P10635 whole entry): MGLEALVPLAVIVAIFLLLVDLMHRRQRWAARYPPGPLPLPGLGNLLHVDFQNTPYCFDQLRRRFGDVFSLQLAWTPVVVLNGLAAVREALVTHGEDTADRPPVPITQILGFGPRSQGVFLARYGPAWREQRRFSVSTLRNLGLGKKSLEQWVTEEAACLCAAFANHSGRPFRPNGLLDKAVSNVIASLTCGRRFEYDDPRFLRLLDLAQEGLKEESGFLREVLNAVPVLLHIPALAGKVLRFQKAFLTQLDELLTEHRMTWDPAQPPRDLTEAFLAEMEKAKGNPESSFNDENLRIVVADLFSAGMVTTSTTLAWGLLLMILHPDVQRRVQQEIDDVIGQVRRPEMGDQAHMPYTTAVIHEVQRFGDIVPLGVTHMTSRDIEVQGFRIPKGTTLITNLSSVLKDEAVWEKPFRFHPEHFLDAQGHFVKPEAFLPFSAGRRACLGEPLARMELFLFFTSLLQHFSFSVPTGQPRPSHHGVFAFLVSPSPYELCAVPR

T2 sequence (P33261 whole entry): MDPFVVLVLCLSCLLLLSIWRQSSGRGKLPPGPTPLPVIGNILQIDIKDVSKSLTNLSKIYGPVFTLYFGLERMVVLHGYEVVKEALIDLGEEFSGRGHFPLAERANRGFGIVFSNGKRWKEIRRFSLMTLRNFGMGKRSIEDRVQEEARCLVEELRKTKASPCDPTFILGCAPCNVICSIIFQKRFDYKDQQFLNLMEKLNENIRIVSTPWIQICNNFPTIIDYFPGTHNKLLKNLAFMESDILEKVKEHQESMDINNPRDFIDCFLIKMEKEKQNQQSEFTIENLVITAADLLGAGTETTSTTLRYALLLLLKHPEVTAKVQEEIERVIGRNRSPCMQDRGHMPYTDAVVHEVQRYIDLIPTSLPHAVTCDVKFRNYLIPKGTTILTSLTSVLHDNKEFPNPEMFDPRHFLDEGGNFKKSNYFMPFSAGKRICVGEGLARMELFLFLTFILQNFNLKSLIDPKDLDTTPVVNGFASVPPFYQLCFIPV
Chain of CYP2C9 (P11712 whole entry): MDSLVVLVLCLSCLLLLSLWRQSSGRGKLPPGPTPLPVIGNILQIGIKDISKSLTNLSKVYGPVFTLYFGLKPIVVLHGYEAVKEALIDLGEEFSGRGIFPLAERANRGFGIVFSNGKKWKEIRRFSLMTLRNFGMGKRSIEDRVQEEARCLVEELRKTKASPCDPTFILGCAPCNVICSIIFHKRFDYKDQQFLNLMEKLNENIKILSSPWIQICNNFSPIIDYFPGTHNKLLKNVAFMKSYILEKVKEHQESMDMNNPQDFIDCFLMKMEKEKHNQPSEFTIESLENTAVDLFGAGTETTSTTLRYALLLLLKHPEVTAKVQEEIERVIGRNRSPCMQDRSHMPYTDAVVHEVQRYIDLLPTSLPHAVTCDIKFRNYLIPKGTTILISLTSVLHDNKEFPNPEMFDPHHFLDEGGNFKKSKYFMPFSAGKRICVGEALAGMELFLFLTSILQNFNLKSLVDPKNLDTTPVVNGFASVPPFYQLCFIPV

## COCCCOc1cc(C[C@@H](C[C@H](N)[C@@H](O)C[C@H](C(=O)NCC([14CH3])([14CH3])C(N)=O)C(C)C)C(C)C)ccc1OC.O=C(O)/C=C/C(=O)O
Cytochrome P450 4F2
  CL: 7.9 µL·min/nmol
[1]
  Radiolabel recovery: 0.04%
[2]
  Radiolabel recovery: 0.6%
[3]
  Radiolabel recovery: 96.2%
[4]
  Radiolabel recovery: OUTCOME = Detected
[5]
  Radiolabel recovery: 0.47%
[6]
  Radiolabel recovery: 2.96%
[7]
  Radiolabel recovery: OUTCOME = Observed, VALUE = Highest radioactivity concentration was observed

## COCCCOc1cc(C[C@@H](C[C@H](N)[C@@H](O)C[C@H](C(=O)NCC(C)(C)C(N)=O)C(C)C)C(C)C)ccc1OC.COCCCOc1cc(C[C@@H](C[C@H](N)[C@@H](O)C[C@H](C(=O)NCC(C)(C)C(N)=O)C(C)C)C(C)C)ccc1OC.O=C(O)/C=C/C(=O)O [ALISKIREN FUMARATE]
[8]
  Cmax: 14.2 µM
[9]
  CREAT_CHANGE_BY: 130%
[10]
  Tmax: 4.98 min
[11]
  half-life: 5.63 h
[12]
  Tmax: 1 h
[13]
  Tmax: 0 h
[14]
  AUC(0-t) at 24 h: 1700 ng·h/mL
[15]
  BUN_CHANGE_BY: 166%
[16]
  Cmax: 10100 ng/mL
[17]
  Cmax normalised: 0.615 (ng/mL)/(mg/kg/day)
[18]
  AUC(0-24) normalised: 17.2 (nmol.h.L-1)/(mg/kg)
[19]
  Cmax normalised: 0.246 (ug/ml)/(mg/kg)
[20]
  AUC(0-t) at 96 h: 12.6 µM·h

## COCCCOc1cc(C[C@@H](C[C@H](N)[C@@H](O)C[C@H](C(=O)NCC(C)(C)C(N)=O)C(C)C)C(C)C)ccc1OC
CYP2C19 [21]
  inhibition at 200 µM: 3%
CYP2A6
  inhibition at 200 µM: 10.5%
CYP2C19 [22]
  inhibition at 200 µM: -15.4%
CYP2C9
  inhibition at 200 µM: 32.1%
CYP2D6
  inhibition at 200 µM: 32.9%
